Literature values in patent publication US20230321008A1, “INHIBITORS OF ACID SPHINGOMYELINASE FOR PREVENTING AND TREATING THE COVID-19 DISEASE” (priority 2020, published 2023).

target: T1, acid sphingomyelinase (ASM) (Homo sapiens, UniProt P17405); settings: cited from earlier work
T1 sequence (P17405 47-631): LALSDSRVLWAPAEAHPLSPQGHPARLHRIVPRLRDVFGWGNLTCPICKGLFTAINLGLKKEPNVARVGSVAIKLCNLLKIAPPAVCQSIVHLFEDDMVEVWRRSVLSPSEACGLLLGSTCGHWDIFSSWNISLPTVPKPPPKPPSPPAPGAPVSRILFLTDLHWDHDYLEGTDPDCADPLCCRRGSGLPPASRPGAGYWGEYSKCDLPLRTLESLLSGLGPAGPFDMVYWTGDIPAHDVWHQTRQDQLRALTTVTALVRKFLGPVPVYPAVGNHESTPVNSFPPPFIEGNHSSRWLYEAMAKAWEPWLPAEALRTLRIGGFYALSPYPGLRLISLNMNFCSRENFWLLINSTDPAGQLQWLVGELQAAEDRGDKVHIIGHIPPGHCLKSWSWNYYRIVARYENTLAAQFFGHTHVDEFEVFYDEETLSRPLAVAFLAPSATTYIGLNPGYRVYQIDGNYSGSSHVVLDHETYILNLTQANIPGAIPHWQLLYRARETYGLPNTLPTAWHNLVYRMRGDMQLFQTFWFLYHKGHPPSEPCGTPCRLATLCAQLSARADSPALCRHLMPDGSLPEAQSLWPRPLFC

Structure (SMILES)	In vitro inhibition of acid sphingomyelinase (in words)
COc1ccccc1OCCNCC(O)COc1cccc2[nH]c3ccccc3c12 (centres unmarked) [Carvedilol, carvedilol]	in vitro inhibit acid sphingomyelinase with varying degrees
CN(C)CC/C=C1/c2ccccc2Sc2ccc(Cl)cc21 [Chlorprothixene]	in vitro inhibit acid sphingomyelinase with varying degrees
CN(C)CCCN1c2ccccc2CCc2ccc(Cl)cc21 [Clomipramine, clomipramine]	in vitro inhibit acid sphingomyelinase with varying degrees
OCCN1CCN(CC/C=C2/c3ccccc3Sc3ccc(C(F)(F)F)cc32)CC1 [Flupenthixol]	in vitro inhibit acid sphingomyelinase with varying degrees
OCCN1CCN(CCCN2c3ccccc3Sc3ccc(C(F)(F)F)cc32)CC1 [Fluphenazine]	in vitro inhibit acid sphingomyelinase with varying degrees
OC1(c2ccc(Cl)c(C(F)(F)F)c2)CCN(CCCC(c2ccc(F)cc2)c2ccc(F)cc2)CC1 [Penfluridol]	in vitro inhibit acid sphingomyelinase with varying degrees
OCCN1CCN(CCCN2c3ccccc3Sc3ccc(Cl)cc32)CC1 [Perphenazine]	in vitro inhibit acid sphingomyelinase with varying degrees
CN(C)CCCN1c2ccccc2Sc2ccccc21 [Promazine]	in vitro inhibit acid sphingomyelinase with varying degrees
O=C1NCCN1CCN1CCC(c2cn(-c3ccc(F)cc3)c3ccc(Cl)cc23)CC1 [Sertindole]	in vitro inhibit acid sphingomyelinase with varying degrees
CSc1ccc2c(c1)N(CCC1CCCCN1C)c1ccccc1S2 (centres unmarked) [Thioridazin]	in vitro inhibit acid sphingomyelinase with varying degrees
CN1CCN(CCCN2c3ccccc3Sc3ccc(C(F)(F)F)cc32)CC1 [Trifluoperazine]	in vitro inhibit acid sphingomyelinase with varying degrees
CN(C)CCCN1c2ccccc2Sc2ccc(C(F)(F)F)cc21 [Triflupromazine]	in vitro inhibit acid sphingomyelinase with varying degrees
CCN(CCCc1ccccc1)CCCc1ccccc1 [alverine]	in vitro inhibit acid sphingomyelinase with varying degrees
CCN(CC)CCCN(c1ccccc1)C1Cc2ccccc2C1 [aprindine]	in vitro inhibit acid sphingomyelinase with varying degrees
COc1ccc(CCN2CCC(Nc3nc4ccccc4n3Cc3ccc(F)cc3)CC2)cc1 [astemizole]	in vitro inhibit acid sphingomyelinase with varying degrees
CN1[C@@H]2CC[C@H]1C[C@@H](OC(c1ccccc1)c1ccccc1)C2 [benztropine]	in vitro inhibit acid sphingomyelinase with varying degrees
CC(C)COCC(CN(Cc1ccccc1)c1ccccc1)N1CCCC1 (centres unmarked) [bepridil]	in vitro inhibit acid sphingomyelinase with varying degrees
OC(CCN1CCCCC1)(c1ccccc1)C1CC2C=CC1C2 (centres unmarked) [biperidene]	in vitro inhibit acid sphingomyelinase with varying degrees
CCN(CC)CCNC(C(=O)OCCC(C)C)c1ccccc1 (centres unmarked) [camylofin]	in vitro inhibit acid sphingomyelinase with varying degrees

Structure (SMILES)	In vitro inhibition of acid sphingomyelinase (in words)
CC(C)/N=c1\cc2n(-c3ccc(Cl)cc3)c3ccccc3nc-2cc1Nc1ccc(Cl)cc1 [clofazimine]	in vitro inhibit acid sphingomyelinase with varying degrees
Clc1ccc(C(OCCN2CCCCC2)c2ccccc2)cc1 (centres unmarked) [cloperastine]	in vitro inhibit acid sphingomyelinase with varying degrees
C[C@H]1[C@H]2CC[C@H]3[C@@H]4CC=C5C[C@@H](N(C)C)CC[C@]5(C)[C@H]4CC[C@]23CN1C [conessine]	in vitro inhibit acid sphingomyelinase with varying degrees
CN(C)CCC=C1c2ccccc2C=Cc2ccccc21 [cyclobenzaprine]	in vitro inhibit acid sphingomyelinase with varying degrees
COc1cc(C(=O)OCCCN2CCCN(CCCOC(=O)c3cc(OC)c(OC)c(OC)c3)CC2)cc(OC)c1OC [dilazep]	in vitro inhibit acid sphingomyelinase with varying degrees
CN(C)CCC=C1c2ccccc2COc2ccccc21 [doxepin]	in vitro inhibit acid sphingomyelinase with varying degrees
CC[C@H]1CN2CCc3cc(OC)c(OC)cc3[C@@H]2C[C@@H]1C[C@H]1NCCc2cc(OC)c(OC)cc21 [emetine]	in vitro inhibit acid sphingomyelinase with varying degrees
CC(NCCC(c1ccccc1)c1ccccc1)c1ccccc1 (centres unmarked) [fendiline]	in vitro inhibit acid sphingomyelinase with varying degrees
Fc1ccc(C(c2ccc(F)cc2)N2CCN(C/C=C/c3ccccc3)CC2)cc1 [flunarizine]	in vitro inhibit acid sphingomyelinase with varying degrees
CN(CCCN1c2ccccc2CCc2ccccc21)CC(=O)c1ccc(Cl)cc1 [lofepramine]	in vitro inhibit acid sphingomyelinase with varying degrees
CCN(CCCCOC(=O)c1ccc(OC)c(OC)c1)C(C)Cc1ccc(OC)cc1 (centres unmarked) [mebeverine]	in vitro inhibit acid sphingomyelinase with varying degrees
CN1CCc2c(c3ccccc3n2Cc2ccccc2)C1 [mebhydrolin]	in vitro inhibit acid sphingomyelinase with varying degrees
COCC(=O)O[C@]1(CCN(C)CCCc2nc3ccccc3[nH]2)CCc2cc(F)ccc2[C@@H]1C(C)C [mibefradil]	in vitro inhibit acid sphingomyelinase with varying degrees
CN1CCN2c3ncccc3Cc3ccccc3C2C1 (centres unmarked) [mirtazapine]	there are discrepancies whether citalopram, venlafaxine and mirtazapine do have in vitro FIASMA effect
CNCCC=C1c2ccccc2CCc2ccccc21 [nortriptyline]	in vitro inhibit acid sphingomyelinase with varying degrees
C1CCC(C(CC2CCCCN2)C2CCCCC2)CC1 (centres unmarked) [perhexiline]	in vitro inhibit acid sphingomyelinase with varying degrees
CN1CCC(=C2c3ccccc3Sc3ccccc32)CC1 [pimethixene]	in vitro inhibit acid sphingomyelinase with varying degrees
CCN(CC)C(C)CN1c2ccccc2Sc2ccccc21 (centres unmarked) [profenamine]	in vitro inhibit acid sphingomyelinase with varying degrees
CC(CN1c2ccccc2Sc2ccccc21)N(C)C (centres unmarked) [promethazine]	in vitro inhibit acid sphingomyelinase with varying degrees
